In ChEMBL document CHEMBL1201862, “PubChem BioAssay data set” (2004):
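All cell lines were grown in 96-well plates and treated with compound for 48 hours. GI50: concentration for 50% inhibition of growth.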 Calls of active or inactive are those of the source. Cut-off read from the data, not from the text of the source: active = GI50 up to about 1.1 µM and inactive = higher.

What was measured:
Experiment in all cases: inhibition of tumour cell growth, NCI panel, 48 h
SW-620 = tested on: SW-620
SF-268 = tested on: SF-268
DU-145 = tested on: DU-145
LOX IMVI = tested on: LOX IMVI
Malme-3M = tested on: Malme-3M
BT-549 = tested on: BT-549
RXF 393 = tested on: RXF 393
MDA-N = tested on: MDA-N
M14 = tested on: M14
NCI-H226 = tested on: NCI-H226
SK-MEL-2 = tested on: SK-MEL-2
OVCAR-5 = tested on: OVCAR-5
MCF7 = tested on: MCF7
ACHN = tested on: ACHN
IGROV-1 = tested on: IGROV-1
CCRF-CEM = tested on: CCRF-CEM
SF-295 = tested on: SF-295
SNB-19 = tested on: SNB-19
HOP-92 = tested on: HOP-92
UACC-257 = tested on: UACC-257
SN12C = tested on: SN12C
SNB-75 = tested on: SNB-75
HT-29 = tested on: HT-29
KM12 = tested on: KM12
UO-31 = tested on: UO-31
MOLT-4 = tested on: MOLT-4
SK-OV-3 = tested on: SK-OV-3
HL-60 = tested on: HL-60
T47D = tested on: T47D
NCI-H460 = tested on: NCI-H460
PC-3 = tested on: PC-3
OVCAR-3 = tested on: OVCAR-3
MDA-MB-231 = tested on: MDA-MB-231
A498 = tested on: A498
Hs-578T = tested on: Hs-578T
SK-MEL-28 = tested on: SK-MEL-28
EKVX = tested on: EKVX
SK-MEL-5 = tested on: SK-MEL-5
SF-539 = tested on: SF-539
786-0 = tested on: 786-0
K562 = tested on: K562
HCC 2998 = tested on: HCC 2998
A549 = tested on: A549
TK-10 = tested on: TK-10
UACC-62 = tested on: UACC-62
OVCAR-8 = tested on: OVCAR-8
HOP-62 = tested on: HOP-62
HCT-15 = tested on: HCT-15
NCI-H23 = tested on: NCI-H23
SR = tested on: SR
HCT-116 = tested on: HCT-116
MDA-MB-435 = tested on: MDA-MB-435
U-251 = tested on: U-251
RPMI-8226 = tested on: RPMI-8226
NCI/ADR-RES = tested on: NCI/ADR-RES
OVCAR-4 = tested on: OVCAR-4
COLO 205 = tested on: COLO 205
NCI-H522 = tested on: NCI-H522
CAKI-1 = tested on: CAKI-1

Measured: GI50

O=C1C=C(N2CCCC2)C(=O)c2c(O)ccc(O)c21
inactive: SW-620 > 10 µM | SF-268 > 10 µM | DU-145 > 10 µM | LOX IMVI > 10 µM | Malme-3M 3.93 µM | BT-549 > 10 µM | RXF 393 > 10 µM | MDA-N > 10 µM | M14 6.32 µM | NCI-H226 > 10 µM | SK-MEL-2 > 10 µM | OVCAR-5 > 10 µM | MCF7 9.57 µM | ACHN > 10 µM | IGROV-1 > 10 µM | CCRF-CEM 1.71 µM | SF-295 > 10 µM | SNB-19 > 10 µM | HOP-92 > 10 µM | UACC-257 > 10 µM | SN12C > 10 µM | SNB-75 > 10 µM | HT-29 > 10 µM | KM12 > 10 µM | UO-31 > 10 µM | MOLT-4 2.37 µM | SK-OV-3 > 10 µM | HL-60 4.52 µM | T47D > 10 µM | NCI-H460 > 10 µM | PC-3 > 10 µM | OVCAR-3 > 10 µM | MDA-MB-231 > 10 µM | A498 > 10 µM | Hs-578T > 10 µM | SK-MEL-28 > 10 µM | EKVX > 10 µM | SK-MEL-5 4.6 µM | SF-539 > 10 µM | 786-0 > 10 µM | K562 2.92 µM | HCC 2998 > 10 µM | A549 > 10 µM | TK-10 > 10 µM | UACC-62 7.28 µM | OVCAR-8 > 10 µM | HOP-62 > 10 µM
> 10 µM: HCT-15

Oc1ccc2c3c1OC1c4[nH]c5c(c4CC4(O)C(C2)N(CC2CC2)CC[C@]314)CC1(O)C2Cc3ccc(O)c4c3[C@@]1(CCN2CC1CC1)C5O4 (some centres undefined)
> 100 µM: HCT-15
inactive: SW-620 21.9 µM | SF-268 19.8 µM | DU-145 37.2 µM | LOX IMVI 27 µM | Malme-3M 17 µM | BT-549 > 100 µM | RXF 393 18.1 µM | MDA-N 18.4 µM | M14 17.5 µM | NCI-H226 27.8 µM | SK-MEL-2 24.2 µM | OVCAR-5 28 µM | NCI-H23 > 100 µM | MCF7 34.7 µM | ACHN > 100 µM | IGROV-1 > 100 µM | SR 27.4 µM | HCT-116 17.5 µM | SF-295 19.6 µM | SNB-19 24.3 µM | MDA-MB-435 19.9 µM | HOP-92 23 µM | UACC-257 20.3 µM | U-251 19.9 µM | SN12C 35 µM | HT-29 20 µM | KM12 17.5 µM | UO-31 > 100 µM | MOLT-4 22.4 µM | SK-OV-3 43 µM | HL-60 21.9 µM | T47D 18.6 µM | PC-3 43.5 µM | OVCAR-3 17.6 µM | MDA-MB-231 24.4 µM | A498 17.5 µM | RPMI-8226 25.2 µM | SK-MEL-28 20.1 µM | EKVX 35.6 µM | SK-MEL-5 44 µM | 786-0 21.3 µM | K562 25.4 µM | HCC 2998 18.7 µM | A549 18.6 µM | NCI/ADR-RES > 100 µM | OVCAR-4 29.8 µM | COLO 205 18.1 µM | TK-10 21.2 µM | UACC-62 20.4 µM | NCI-H522 19.3 µM | OVCAR-8 51.9 µM | HOP-62 77.3 µM | CAKI-1 > 100 µM

Clc1cccc(Cl)c1C1SCc2nc3cc4ccccc4cc3n21 (centres undefined)
inactive: SW-620 > 100 µM | SF-268 > 100 µM | DU-145 > 100 µM | Malme-3M > 100 µM | BT-549 > 100 µM | RXF 393 > 100 µM | MDA-N > 100 µM | M14 > 100 µM | NCI-H226 > 100 µM | SK-MEL-2 > 100 µM | OVCAR-5 > 100 µM | NCI-H23 > 100 µM | MCF7 > 100 µM | ACHN > 100 µM | IGROV-1 > 100 µM | CCRF-CEM > 100 µM | HCT-116 > 100 µM | SF-295 > 100 µM | SNB-19 > 100 µM | MDA-MB-435 > 100 µM | UACC-257 > 100 µM | U-251 > 100 µM | SN12C > 100 µM | SNB-75 > 100 µM | HT-29 > 100 µM | KM12 > 100 µM | UO-31 > 100 µM | MOLT-4 > 100 µM | SK-OV-3 > 100 µM | T47D > 100 µM | NCI-H460 > 100 µM | PC-3 > 100 µM | OVCAR-3 > 100 µM | MDA-MB-231 > 100 µM | Hs-578T > 100 µM | RPMI-8226 > 100 µM | SK-MEL-28 > 100 µM | EKVX > 100 µM | SK-MEL-5 > 100 µM | 786-0 > 100 µM | K562 > 100 µM | HCC 2998 > 100 µM | A549 > 100 µM | NCI/ADR-RES > 100 µM | OVCAR-4 > 100 µM | COLO 205 > 100 µM | TK-10 > 100 µM | UACC-62 > 100 µM | OVCAR-8 > 100 µM | HOP-62 > 100 µM | CAKI-1 > 100 µM
> 100 µM: HCT-15
